# Strand notation (5' to 3'): a small letter for the sugar, then the base; units joined by * are phosphorothioate-linked, units joined directly phosphodiester-linked; [ ] holds rarer units or linkages, { } end groups; capitals alone tell only the bases. e = 2'-O-(2-methoxyethyl) (MOE); [5mC] = 5-methylcytosine; d = 2'-deoxy (DNA)
# System: human PKK mRNA
# Experiment: Antisense inhibition of human PKK mRNA in HepaRG cells, 5,000 nM (Example 2)
# Format: cell-based
# How it was run: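 Percent inhibition of PKK mRNA is reported relative to untreated cells, after adjustment for total RNA by RIBOGREEN. Gapmers of 16–20 nucleosides with 2′-MOE wings were delivered at 5,000 nM by electroporation into HepaRG cells and left for roughly 24 hours before RNA isolation.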
# [1] = HepaRG cells, electroporation with 5,000 nM antisense oligonucleotide, approximately 24 hours, PKK mRNA by RT-PCR (RTS3454), relative to untreated control cells, Table 5 experiment
# [2] = HepaRG cells, electroporation, 5,000 nM antisense oligonucleotide, approx. 24 hours, primer probe set RTS3454, relative to untreated control cells, Table 12
# [3] = human PKK mRNA in HepaRG cells, 5-10-5 gapmers, Table 14
# [4] = HepaRG cells, 5,000 nM antisense oligonucleotide, human PKK mRNA, Table 18
# [5] = HepaRG cells, electroporation, 5,000 nM antisense oligonucleotide, approx. 24 hours, primer probe set RTS3454, relative to untreated control cells, Table 11
# [6] = Table 9 experiment, HepaRG cells, 20,000 cells per well, electroporation with 5,000 nM antisense oligonucleotide, approx. 24 hours, PKK mRNA by RT-PCR (RTS3454), relative to untreated control cells
# [7] = Table 10 experiment, HepaRG cells, 20,000 cells per well, electroporation with 5,000 nM antisense oligonucleotide, approx. 24 hours, PKK mRNA by RT-PCR (RTS3454), relative to untreated control cells
# [8] = HepaRG cells, electroporation with 5,000 nM antisense oligonucleotide, approximately 24 hours, PKK mRNA by RT-PCR (RTS3454), relative to untreated control cells, Table 6 experiment
# [9] = Table 13, human PKK mRNA in HepaRG cells, 5-10-5 gapmers
# [10] = Table 7, HepaRG cells, electroporation with 5,000 nM antisense oligonucleotide, approx. 24 hours, PKK mRNA by RT-PCR (RTS3454), relative to untreated control cells
# [11] = human PKK mRNA, HepaRG cells, 5,000 nM antisense oligonucleotide, Table 18
# [12] = human PKK mRNA, HepaRG cells, 5-10-5 motif oligonucleotides targeting SEQ ID NO: 1 and 10
# [13] = HepaRG cells, 5,000 nM antisense oligonucleotide, 5-10-5 gapmers, Table 16
substance,measurement,setting,value
547269 (eA*eA*eT*eG*eA*dA*d[5mC]*dG*dG*dT*d[5mC]*dT*dT*d[5mC]*dA*eA*eG*e[5mC]*eT*eG; antisense) [compound 547269],% inhibition,[1],56%
547537 (antisense e[5mC]*e[5mC]*eT*eG*eT*dG*d[5mC]*dA*dT*dA*dG*dA*d[5mC]*d[5mC]*d[5mC]*e[5mC]*eA*eA*e[5mC]*eA) [compound 547537],% inhibition,[2],65%
546874 (eA*eT*eA*eA*e[5mC]*dA*dA*dT*dA*dT*d[5mC]*dA*d[5mC]*dT*dG*eT*eA*e[5mC]*e[5mC]*eT; antisense) [compound 546874],% inhibition,[3],68%
548718 (DNA eT*eA*e[5mC]*dT*dA*dG*dT*dT*dT*d[5mC]*d[5mC]*dT*dA*eT*eA*eA*e[5mC]; antisense) [compound 548718],% inhibition,[4],0%
547523 (antisense eT*eT*eG*eT*e[5mC]*dA*dG*d[5mC]*d[5mC]*d[5mC]*d[5mC]*dT*dG*dG*dT*eT*eA*e[5mC]*eG*eG) [compound 547523],% inhibition,[5],69%
546148 (e[5mC]*eG*eT*eT*eT*dT*d[5mC]*dA*dT*dA*dG*dA*dG*dT*dT*eG*eA*eG*eT*e[5mC]; antisense) [compound 546148],% inhibition,[1],68%
547285 (antisense eA*e[5mC]*eT*eG*eT*dA*dG*d[5mC]*dA*dA*dA*d[5mC]*dA*dA*dG*eG*eA*eA*eA*eT) [compound 547285],% inhibition,[1],51%
547611 (antisense e[5mC]*eT*eG*eT*eA*dA*d[5mC]*dA*dG*dT*dA*dT*d[5mC]*dA*d[5mC]*eT*eG*eT*eA*e[5mC]) [compound 547611],% inhibition,[3],71%
546336 (antisense eT*e[5mC]*eA*eT*eT*dT*dG*dT*dT*dA*d[5mC]*d[5mC]*dA*dA*dA*eG*eG*eA*eA*eT) [compound 546336],% inhibition,[6],66%
same,% inhibition,[7],73%
547501 (antisense eA*eT*eT*eG*e[5mC]*d[5mC]*dT*dA*dG*dA*d[5mC]*dT*d[5mC]*dT*dG*eG*eA*e[5mC]*eT*eG) [compound 547501],% inhibition,[5],55%
547362 (e[5mC]*eA*eA*e[5mC]*eA*dT*d[5mC]*d[5mC]*dA*d[5mC]*dA*dT*d[5mC]*dT*dG*eA*eG*eA*eA*e[5mC]; antisense) [compound 547362],% inhibition,[8],47%
546823 (eT*eA*e[5mC]*eT*eA*dG*dT*dT*dT*d[5mC]*d[5mC]*dT*dA*dT*dA*eA*e[5mC]*eT*eG*e[5mC]; antisense) [compound 546823],% inhibition,[9],44%
546367 (antisense eA*eA*eA*eA*eA*dT*dT*dG*d[5mC]*d[5mC]*dT*dA*dG*dA*d[5mC]*eT*e[5mC]*eT*eG*eG) [compound 546367],% inhibition,[5],61%
546244 (eT*eA*eA*eA*eT*dT*dT*dT*dA*dG*dA*dA*dT*dG*dG*e[5mC]*eA*eG*eG*eG; antisense) [compound 546244],% inhibition,[10],27%
546160 (eA*e[5mC]*eT*eG*eA*dA*dT*dA*dG*d[5mC]*dA*dA*dA*d[5mC]*dA*e[5mC]*e[5mC]*eT*eT*eG; antisense) [compound 546160],% inhibition,[1],78%
547561 (eA*eA*eG*eG*eG*dA*dA*dA*dT*dT*dA*dG*dA*dG*dG*e[5mC]*eA*eG*eG*e[5mC]; antisense) [compound 547561],% inhibition,[9],57%
546309 (antisense e[5mC]*e[5mC]*e[5mC]*eT*eT*d[5mC]*dT*dG*dA*dG*dA*d[5mC]*dT*dT*dT*eA*eT*eA*eG*eT) [compound 546309],% inhibition,[6],88%
same,% inhibition,[7],81%
548782 (antisense eT*eA*e[5mC]*e[5mC]*dT*dA*dT*dA*dA*d[5mC]*dT*dA*dT*eA*eA*e[5mC]*eA) [compound 548782],% inhibition,[11],0%
547638 (eA*eT*eA*eA*e[5mC]*dA*dG*dT*dA*dT*d[5mC]*dA*d[5mC]*dT*dG*eT*eA*e[5mC]*eT*eA; antisense) [compound 547638],% inhibition,[12],87%
547553 (antisense eT*eG*e[5mC]*eT*e[5mC]*d[5mC]*d[5mC]*d[5mC]*dA*dT*dG*d[5mC]*dA*dT*dA*e[5mC]*eT*e[5mC]*eG*e[5mC]) [compound 547553],% inhibition,[2],64%
548741 (DNA e[5mC]*eT*eG*eT*dA*d[5mC]*dT*dA*dG*dT*dT*dT*d[5mC]*e[5mC]*eT*eA*eT; antisense) [compound 548741],% inhibition,[11],69%
547361 (eG*e[5mC]*eA*eA*e[5mC]*d[5mC]*dA*dA*dT*dT*dT*d[5mC]*dT*dG*dA*eA*eA*eG*eG*eG; antisense) [compound 547361],% inhibition,[8],46%
546789 (eG*e[5mC]*eT*eT*e[5mC]*dT*d[5mC]*dT*dA*dT*d[5mC]*dT*d[5mC]*d[5mC]*d[5mC]*eA*eG*eT*eG*eT; antisense) [compound 546789],% inhibition,[9],79%
547680 (antisense eT*eA*eT*e[5mC]*eA*d[5mC]*dT*dG*dT*dA*d[5mC]*d[5mC]*dT*dA*dT*eA*eT*e[5mC]*eA*e[5mC]) [compound 547680],% inhibition,[13],41%
547515 (antisense eA*eG*eA*eA*eG*dA*dT*dG*d[5mC]*d[5mC]*dA*d[5mC]*dT*d[5mC]*dT*e[5mC]*e[5mC]*eA*eT*eG) [compound 547515],% inhibition,[5],58%
546918 (eA*eA*e[5mC]*eA*eT*d[5mC]*dA*d[5mC]*dT*dG*dT*dA*d[5mC]*d[5mC]*dT*eA*eT*eA*eA*e[5mC]; antisense) [compound 546918],% inhibition,[13],14%
547668 (e[5mC]*eA*eA*e[5mC]*eT*dA*dT*dA*dA*d[5mC]*dA*dG*dT*dA*dT*e[5mC]*eA*e[5mC]*eT*eG; antisense) [compound 547668],% inhibition,[12],44%
546492 (e[5mC]*eT*e[5mC]*eG*e[5mC]*d[5mC]*dT*dT*dT*dG*dT*dG*dA*d[5mC]*dT*e[5mC]*eG*eA*eT*eT; antisense) [compound 546492],% inhibition,[2],61%
546690 (e[5mC]*eT*e[5mC]*eT*eG*d[5mC]*dT*dG*dG*dT*dT*dT*dT*dA*dG*eA*e[5mC]*e[5mC]*eA*e[5mC]; antisense) [compound 546690],% inhibition,[2],44%
546186 (antisense eA*eT*eG*eT*e[5mC]*dT*d[5mC]*dG*dA*dT*dG*dG*d[5mC]*dA*dA*eG*e[5mC]*eA*e[5mC]*eT) [compound 546186],% inhibition,[8],84%
546494 (eG*e[5mC]*eA*eT*eA*d[5mC]*dT*d[5mC]*dG*d[5mC]*d[5mC]*dT*dT*dT*dG*eT*eG*eA*e[5mC]*eT; antisense) [compound 546494],% inhibition,[2],67%
547330 (antisense e[5mC]*eT*eT*eA*eT*dT*dT*dG*dA*dT*dG*dA*d[5mC]*d[5mC]*dA*e[5mC]*eA*eT*eT*eG) [compound 547330],% inhibition,[8],60%
547605 (antisense eA*e[5mC]*eA*eA*eT*dA*dT*d[5mC]*dA*d[5mC]*dT*dG*dT*dA*d[5mC]*e[5mC]*eT*eA*eT*eA) [compound 547605],% inhibition,[3],43%
546200 (antisense eA*eA*eA*eA*e[5mC]*dT*dG*dG*d[5mC]*dA*dG*d[5mC]*dG*dA*dA*eT*eG*eT*eT*eA) [compound 546200],% inhibition,[8],91%
547741 (eT*eA*eG*eG*eT*dG*dG*dT*dG*dG*dG*dA*dT*dT*dG*eG*eT*eG*eG*eT; antisense) [compound 547741],% inhibition,"HepaRG cells, 5,000 nM antisense oligonucleotide, 5-10-5 gapmers, Table 17",47%
548732 (DNA eA*e[5mC]*eT*eG*dT*dA*d[5mC]*dT*dA*dG*dT*dT*dT*d[5mC]*e[5mC]*eT*eA; antisense) [compound 548732],% inhibition,[11],36%
547432 (e[5mC]*e[5mC]*e[5mC]*eA*eG*dT*dG*dT*dT*dA*d[5mC]*dA*d[5mC]*dA*dA*eT*e[5mC]*eT*e[5mC]*eA; antisense) [compound 547432],% inhibition,"Table 8, HepaRG cells, electroporation with 5,000 nM antisense oligonucleotide, approx. 24 hours, PKK mRNA by RT-PCR (RTS3454), relative to untreated control cells",90%
547308 (antisense eT*e[5mC]*eA*eA*eG*dA*dA*dG*d[5mC]*dA*dA*d[5mC]*d[5mC]*dA*dA*eA*e[5mC]*e[5mC]*eT*eT) [compound 547308],% inhibition,[1],66%
548707 (DNA eA*e[5mC]*eT*dA*dG*dT*dT*dT*d[5mC]*d[5mC]*dT*dA*dT*eA*eA*e[5mC]; antisense) [compound 548707],% inhibition,[4],10%
547403 (eA*eT*eT*eT*eT*dA*dG*dA*dA*dT*dG*dG*d[5mC]*dA*dG*eG*eG*eT*eT*e[5mC]; antisense) [compound 547403],% inhibition,[10],10%
546235 (eG*eG*e[5mC]*eT*eA*dT*dA*dT*d[5mC]*d[5mC]*dA*dG*dA*dT*dA*eT*eG*eG*eT*eG; antisense) [compound 546235],% inhibition,[10],77%
547629 (antisense eA*e[5mC]*eT*e[5mC]*eT*dA*d[5mC]*d[5mC]*dT*dA*dT*dA*dA*d[5mC]*dT*e[5mC]*eT*eA*eA*e[5mC]) [compound 547629],% inhibition,[12],0%
